Test results: article PMC11249626, “Fluorophore-Labeled Pyrrolones Targeting the Intracellular Allosteric Binding Site of the Chemokine Receptor CCR1” (ACS Pharmacology & Translational Science, 2024)

Molecular target: T1, CXCR2 (Homo sapiens, UniProt P25025)
T1 construct: host or cells: HEK293T, transient
T1 sequence (P25025 1-360): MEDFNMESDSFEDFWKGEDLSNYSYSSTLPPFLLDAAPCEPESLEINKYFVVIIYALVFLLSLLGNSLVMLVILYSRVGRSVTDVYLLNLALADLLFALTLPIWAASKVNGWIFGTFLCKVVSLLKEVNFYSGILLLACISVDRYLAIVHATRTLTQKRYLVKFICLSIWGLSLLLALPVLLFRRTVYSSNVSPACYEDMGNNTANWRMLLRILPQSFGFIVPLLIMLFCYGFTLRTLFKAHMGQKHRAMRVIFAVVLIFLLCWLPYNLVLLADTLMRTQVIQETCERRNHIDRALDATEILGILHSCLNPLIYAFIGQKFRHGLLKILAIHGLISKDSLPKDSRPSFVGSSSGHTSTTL
Test: Membrane-based NanoBRET saturation binding assay, CXCR2_Nluc membranes
Details: compared with CCR1
Protocol: Emission spectra of Nluc -labeled CCR1 (CCR1_Nluc) protein: The emission spectra of CCR1_Nluc has already been reported by Toy et al.1 For a confirmation of the reported data with new CCR1_Nluc membrane batches, furimazine (Promega, Mannheim, Germany 1:2000) was added to the membrane preparations (2 µg protein/well). […]
NanoBRET binding assays: Membrane-based NanoBRET saturation assay: For the establishment of our NanoBRET binding assay, we referred to recently published protocols. […]
Then, 20 µL of the membrane preparations diluted in assay buffer (3 µg total protein/well) were added and the plates were incubated for 90 min at 37 °C. Subsequently, 5 µL of a furimazine solution (Promega, Mannheim, Germany, final assay dilution: 1:5,000) were added to each well (final assay volume: 35 µL) before measuring luminescence with a CLARIOstar microplate reader using 620/10 nm and 475/30 nm emission filters after 5 min of incubation in the dark. Bioluminescence resonance energy transfer (BRET) was determined as the ratio of acceptor fluorescence and donor luminescence. […] Specific binding signals were calculated as a difference of total and non-specific binding. If required, netBRET values were calculated as the difference between total BRET values and the values obtained in the absence of a fluorescent ligand. […]

Binding signal for CXCR2: much weaker
SMILES: CN(C)c1ccc2c(-c3cc(C(=O)NCCOCCOCc4cn(CCCC(=O)C5=C(O)C(=O)N(c6ccc(Br)cc6F)C5C5CCCCC5)nn4)ccc3C(=O)[O-])c3ccc(=[N+](C)C)cc-3oc2c1 (stereo not shown) [compound 12]
